In assay [1] the target is T1, human B1R receptor (hB1R) (Homo sapiens, UniProt P46663).
T1 construct: host or cells: CHO K1 cells
T1 sequence (P46663 1-353): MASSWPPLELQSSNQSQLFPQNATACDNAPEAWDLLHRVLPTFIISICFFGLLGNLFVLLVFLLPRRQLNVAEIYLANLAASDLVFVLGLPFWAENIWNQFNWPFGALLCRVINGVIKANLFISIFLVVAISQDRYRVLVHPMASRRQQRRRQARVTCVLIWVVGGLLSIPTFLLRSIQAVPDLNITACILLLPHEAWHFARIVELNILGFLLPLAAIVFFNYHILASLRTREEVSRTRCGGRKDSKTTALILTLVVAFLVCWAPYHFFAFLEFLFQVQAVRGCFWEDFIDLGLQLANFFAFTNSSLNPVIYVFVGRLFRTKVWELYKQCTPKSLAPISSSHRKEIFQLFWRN
The assay is described as follows: FLIPR Ca2+ assay (Fluo-4) on CHO K1 cells stably transfected with the human B1R gene. Format: cell-based. Particulars: test substance 10 μM, agonist Lys-Des-Arg9-bradykinin 0.5 nM, % inhibition compared to the maximum achievable inhibition; for inhibition at 10 µM: CHO-K1. How it is done: (§1) The agonistic or antagonistic action of compounds can be quantified on the bradykinin 1 receptor (B1R) of humans and rats with ectopically expressing cell lines (CHO K1 cells) and with the aid of a Ca^2+-sensitive dye (Fluo-4) in the fluorescent imaging plate reader (FLIPR). The figure in percent activation refers to the Ca^2+ signal after addition of Lys-Des-Arg^9-bradykinin (0.5 nM) and Des-Arg^9-bradykinin (100 nM). Antagonists result in a suppression of the Ca^2+ inflow after the addition of the agonist. Percent inhibition values are given in comparison to the maximum achievable inhibition. The compounds according to the invention act, for example, on the B1R which is implicated in various disease states. This means that the compounds of the invention are useful as pharmaceutically active substances in medicaments for the treatment and/or inhibition of such disease states.
(§2) The agonistic or antagonistic action of substances can be determined on the bradykinin 1 receptor (B1R) of humans and rats by means of the following assay. According to this assay the Ca^2+ inflow through the channel is quantified by means of a Ca^2+-sensitive dye (Fluo-4 type, Molecular Probes Europe BV, Leiden, Netherlands), in a Fluorescent Imaging Plate Reader (FLIPR, Molecular Devices, Sunnyvale, USA).
(§3) Chinese hamster ovary cells (CHO K1 cells) are used, which are stably transfected with the human B1R gene (hB1R cells, Euroscreen s.a., Gosselies, Belgium), or with the B1R gene of rats (rB1R cells, Axxam, Milan, Italy). For functional investigations these cells are plated out on black 96-well plates with a clear floor (BD Biosciences, Heidelberg, Germany) in a density of 20,000/25,000 cells/well. The cells are incubated overnight with 10 vol. % FBS (foetal bovine serum, Gibco Invitrogen GmbH, Karlsruhe, Germany) at 37° C. and 5% CO2 in a culture medium (hB1R cells: Nutrient Mixture Ham's F12, Gibco Invitrogen GmbH, Karlsruhe, Germany; rB1R cells: D-MEM/F12, Gibco Invitrogen GmbH, Karlsruhe, Germany). The following day the cells are charged for 60 minutes at 37° C. with 2.13 μM Fluo-4 (Molecular Probes Europe BV, Leiden, Netherlands) in HBSS buffer (Hank's buffered saline solution, Gibco Invitrogen GmbH, Karlsruhe, Germany) together with […] (Sigma-Aldrich, Taufkirchen, Germany) and 10 mM HEPES (Sigma-Aldrich, Taufkirchen, Germany).
(§4) The plates are then washed twice with HBSS buffer and HBSS buffer is added which additionally contains 0.1% BSA (bovine serum albumin; Sigma-Aldrich, Taufkirchen, Germany), 5.6 mM glucose and 0.05% gelatin (Merck KGaA, Darmstadt, Germany). After further incubation for 20 minutes at room temperature the plates are used for the Ca^2+ measurement in the FLIPR. The Ca^2+-dependent fluorescence is measured both before and after the addition of substances (λex=488 nm, λem=540 nm). The quantification is carried out by measuring the highest fluorescence intensity (FC, fluorescence counts) over time.
(§5) The FLIPR protocol consists of two substance additions. First, test substances (10 μM) are pipetted onto the cells and the Ca^2+ inflow is compared with the control (hB1R: Lys-Des-Arg9-bradykinin 0.5 nM; rB1R: Des-Arg9-bradykinin 100 nM). This gives the result in percent activation referred to the Ca^2+ signal after addition of Lys-Des-Arg9-bradykinin (0.5 nM), bzw. Des-Arg9-bradykinin (100 nM). After 10 minutes' incubation 0.5 nM Lys-Des-Arg9-bradykinin (hB1R) and 100 nM Des-Arg^9-bradykinin (rB1R) are applied and the inflow of Ca^2+ is likewise determined. Antagonists lead to a suppression of the Ca^2+ inflow. The percent inhibition compared to the maximum achievable inhibition is calculated. The compounds show a good activity on both human and rat receptors.
(§6) The agonistic and antagonistic action of the compounds according to the invention on the bradykinin 1 receptor (B1R) of humans and rats were determined as described above. Antagonists lead to a suppression of the Ca^2+ inflow. […]

Assay [2] has as its target T2, B1R receptor of rats (rB1R) (Rattus norvegicus, UniProt P97583).
T2 construct: host or cells: CHO K1 cells
T2 sequence (P97583 1-337): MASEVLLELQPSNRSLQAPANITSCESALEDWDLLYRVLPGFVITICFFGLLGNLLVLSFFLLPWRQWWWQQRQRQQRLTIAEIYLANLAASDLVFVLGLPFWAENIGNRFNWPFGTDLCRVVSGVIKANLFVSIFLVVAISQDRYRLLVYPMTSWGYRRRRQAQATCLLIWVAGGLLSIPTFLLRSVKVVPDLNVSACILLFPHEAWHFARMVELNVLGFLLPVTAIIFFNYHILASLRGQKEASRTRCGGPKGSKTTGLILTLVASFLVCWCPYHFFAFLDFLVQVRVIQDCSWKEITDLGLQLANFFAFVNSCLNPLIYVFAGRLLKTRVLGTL
The assay is described as follows: FLIPR Ca2+ assay (Fluo-4) on CHO K1 cells stably transfected with the B1R gene of rats. Format: cell-based. To be noted: test substance 10 μM, agonist Des-Arg9-bradykinin 100 nM, % inhibition compared to the maximum achievable inhibition; for inhibition at 10 µM: CHO-K1. The method, then: as §1, §2, §3, §4, §5, §6

The term inhibition denotes the relative decrease from the control value, in per cent.

Consider `COc1cc(C)c(S(=O)(=O)N2CCCCC2COCC(=O)N2CCn3cccc3C2c2cccc(C(F)(F)F)c2)c(C)c1` (stereo not drawn) [(30), 2-((1-(4-methoxy-2,6-dimethylphenylsulfonyl)piperidin-2-yl)methoxy)-1-(1-(3-(trifluoromethyl)phenyl)-3,4-dihydropyrrolo[1,2-a]pyrazin-2(1H)-yl)ethanone], for which the inhibition at 10 µM in assay [1] was 58%; in assay [2], 98%.

In the case of `COc1cccc(C2c3cccn3CCN2C(=O)COCC2CCCCN2S(=O)(=O)c2c(C)cc(OC)cc2C)c1` (stereo not drawn) [(31), 2-((1-(4-methoxy-2,6-dimethylphenylsulfonyl)piperidin-2-yl)methoxy)-1-(1-(3-methoxyphenyl)-3,4-dihydropyrrolo[1,2-a]pyrazin-2(1H)-yl)ethanone], the inhibition at 10 µM in assay [1] turned out to be 96%; in assay [2], 98%.

Regarding `COc1cc(C)c(S(=O)(=O)N2CCCCC2COCC(=O)N2CCn3cccc3C2c2ccc(C(F)(F)F)cc2F)c(C)c1` (stereo not drawn) [(32), 1-(1-(2-fluoro-4-(trifluoromethyl)phenyl)-3,4-dihydropyrrolo[1,2-a]pyrazin-2(1H)-yl)-2-((1-(4-methoxy-2,6-dimethylphenylsulfonyl)piperidin-2-yl)methoxy)ethanone], the inhibition at 10 µM is 61% in assay [1] and 99% in assay [2].

`Cc1cc(C)c(S(=O)(=O)N2CCCCC2COCC(=O)N2CCn3cccc3C2C(C)(C)C)c(C)c1` (stereo not drawn) [(33), 1-(1-tert-butyl-3,4-dihydropyrrolo[1,2-a]pyrazin-2(1H)-yl)-2-((1-(mesitylsulfonyl)piperidin-2-yl)methoxy)ethanone]: the inhibition at 10 µM in assay [1] stood at 98%; in assay [2], 100%.

For `Cc1cc(C)c(S(=O)(=O)N2CCCCC2COCC(=O)N2CCn3cccc3C2C)c(C)c1` (stereo not drawn) [(34), 2-((1-(mesitylsulfonyl)piperidin-2-yl)methoxy)-1-(1-methyl-3,4-dehydro-pyrrolo[1,2-a]pyrazin-2(1H)-yl)ethanone], the “hB1R [10 μM] % Inhibition” value in assay [1] is 76%. Further, in assay [2], the “rB1R [10 μM] % Inhibition” value is reported as 99%.

Turning to `Cc1cc(C)c(S(=O)(=O)N2CCCCC2COCC(=O)N2CCn3cccc3C2c2cccnc2)c(C)c1` (stereo not drawn) [(35), 2-((1-(mesitylsulfonyl)piperidin-2-yl)methoxy)-1-(1-(pyridin-3-yl)-3,4-dihydropyrrolo[1,2-a]pyrazin-2(1H)-yl)ethanone], the inhibition at 10 µM in assay [1] was found to be 100%; in assay [2], 97%.

With `Cc1cc(C)c(S(=O)(=O)N2CCCCC2COCC(=O)N2CCn3cccc3C2c2ccc(Cl)nc2)c(C)c1` (stereo not drawn) [(36), 1-(1-(6-chloropyridin-3-yl)-3,4-dihydropyrrolo[1,2-a]pyrazin-2(1H)-yl)-2-((1-(mesitylsulfonyl)piperidin-2-yl)methoxy)ethanone], the inhibition at 10 µM in assay [1] and in assay [2] was 99% each time.

On to `Cc1cc(C)c(S(=O)(=O)N2CCCCC2COCC(=O)N2CCn3ccnc3C2)c(C)c1` (stereo not drawn) [(37), 1-(5,6-dihydroimidazo[1,2-a]pyrazin-7(8H)-yl)-2-((1-(mesitylsulfonyl)piperidin-2-yl)methoxy)ethanone], for which the inhibition at 10 µM in assay [1] was 18%; in assay [2], 91%.

Turning to `COc1ccc(C2c3cccn3CCN2C(=O)COCC2CCCCN2S(=O)(=O)c2c(C)cc(C)cc2C)cc1` (stereo not drawn) [(38), 2-((1-(mesitylsulfonyl)piperidin-2-yl)methoxy)-1-(1-(4-methoxyphenyl)-3,4-dihydropyrrolo[1,2-a]pyrazin-2(1H)-yl)ethanone], the inhibition at 10 µM was 90% in assay [1] and 99% in assay [2].

Consider `Cc1cc(C)c(S(=O)(=O)N2CCCCC2COCC(=O)N2CCn3cccc3C2c2ccccc2)c(C)c1` (stereo not drawn) [(39), 2-((1-(mesitylsulfonyl)piperidin-2-yl)methoxy)-1-(1-phenyl-3,4-dihydropyrrolo[1,2-a]pyrazin-2(1H)-yl)ethanone], for which the inhibition at 10 µM amounted to 77% in assay [1] and 99% in assay [2].

For the molecule `Cc1cc(C)c(S(=O)(=O)N2CCCCC2COCC(=O)N2CCn3cccc3C2c2ccc(F)c(F)c2)c(C)c1` (stereo not drawn) [(40), 1-(1-(3,4-difluorophenyl)-3,4-dihydropyrrolo[1,2-a]pyrazin-2(1H)-yl)-2-((1-(mesitylsulfonyl)piperidin-2-yl)methoxy)ethanone], the inhibition at 10 µM in assay [1] worked out at 38%; in assay [2] it was 100%.

For the molecule `Cc1cc(C)c(S(=O)(=O)N2CCCCC2COCC(=O)N2CCn3cccc3C2c2ccc(C)c(C)c2)c(C)c1` (stereo not drawn) [(41), 1-(1-(3,4-dimethylphenyl)-3,4-dihydropyrrolo[1,2-a]pyrazin-2(1H)-yl)-2-((1-(mesitylsulfonyl)piperidin-2-yl)methoxy)ethanone], the inhibition at 10 µM in assay [1] turned out to be 35%; in assay [2], 98%.

On to `Cc1cc(C)c(S(=O)(=O)N2CCCCC2COCC(=O)N2CCn3cccc3C2c2cccc(F)c2)c(C)c1` (stereo not drawn) [(42), 1-(1-(3-fluorophenyl)-3,4-dihydropyrrolo[1,2-a]pyrazin-2(1H)-yl)-2-((1-(mesitylsulfonyl)piperidin-2-yl)methoxy)ethanone], for which the inhibition at 10 µM in assay [1] turned out to be 73%; in assay [2], 99%.

As to `Cc1cc(C)c(S(=O)(=O)N2CCCCC2COCC(=O)N2CCn3cccc3C2c2cccs2)c(C)c1` (stereo not drawn) [(43), 2-((1-(mesitylsulfonyl)piperidin-2-yl)methoxy)-1-(1-(thiophen-2-yl)-3,4-dihydropyrrolo[1,2-a]pyrazin-2(1H)-yl)ethanone], the results for the inhibition at 10 µM in assay [1] and in assay [2] were 96% and 98%, respectively.

Consider `Cc1cc(C)c(S(=O)(=O)N2CCCCC2COCC(=O)N2CCn3cccc3C2c2cccc(C(F)(F)F)c2)c(C)c1` (stereo not drawn) [(44), 2-((1-(mesitylsulfonyl)piperidin-2-yl)methoxy)-1-(1-(3-(trifluoromethyl)phenyl)-3,4-dihydropyrrolo[1,2-a]pyrazin-2(1H)-yl)ethanone], for which the results for the inhibition at 10 µM in assay [1] and in assay [2] were 10% and 79%, respectively.

For the origin of these results see patent publication US8178535B2, “Substituted sulfonamide compounds having bradykinin 1 receptor activity and use thereof as medicaments” (Gruenenthal GmbH, priority 2008, dated 2012).
